One experiment has as its target T1, human GCGR (Homo sapiens, UniProt P47871).
T1 construct: expressed in transfected cells; growth medium holds Blasticidin and Hygromycin
Description: cAMP activity assay at the Glucagon receptor (GCGR). The format is cell-based. Particulars: for hGCGR/hGLP1R (hTone): ratio of GCGR EC50 to GLP1R EC50. An outline of the steps: (§1)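 Peptides serially diluted from DMSO (10 points) and added to frozen-stock cells bearing human GLP1R (10,000 cells/well) or GCGR (30,000 cells/well), 1 h at RT, dark. EC50 by four-parameter logistic fit of HitHunter cAMPXS luminescence, read following overnight RT incubation.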

In the next experiment the target is T2, human GLP1R (Homo sapiens, UniProt P43220).
T2 construct: expressed in transfected cells; growth medium holds Blasticidin and Hygromycin
T2 sequence (P43220 24-463): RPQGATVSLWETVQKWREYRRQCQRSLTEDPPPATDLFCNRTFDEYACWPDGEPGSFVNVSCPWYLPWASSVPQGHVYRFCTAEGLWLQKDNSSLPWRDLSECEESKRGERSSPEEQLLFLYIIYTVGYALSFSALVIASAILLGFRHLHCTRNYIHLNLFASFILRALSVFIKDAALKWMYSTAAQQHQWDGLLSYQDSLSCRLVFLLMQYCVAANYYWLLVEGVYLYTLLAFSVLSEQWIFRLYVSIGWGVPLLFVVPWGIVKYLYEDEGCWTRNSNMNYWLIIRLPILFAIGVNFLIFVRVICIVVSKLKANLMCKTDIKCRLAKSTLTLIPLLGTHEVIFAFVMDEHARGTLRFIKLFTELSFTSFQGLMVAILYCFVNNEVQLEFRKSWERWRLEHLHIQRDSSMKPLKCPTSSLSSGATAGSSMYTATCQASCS
Description: cAMP activity assay at the GLP-1 receptor (GLP1R). Particulars: summary statement: EC50 at each of the glucagon and GLP-1 receptors; read-out: EC50 at the GLP-1 receptor. Type of experiment: cell-based. An outline of the steps: as §1

[1] abbreviates: summary statement: EC50 at each of the glucagon and GLP-1 receptors, read-out: EC50 at the glucagon receptor.

Molecules are shown by their SMILES. Read-outs that look alike come from different tables or passages of the source. Numbered stars: 1 amine (or outer) side, 2 acyl side, 3 side chain; on linkers, the order of the positions; unused ones are H or OH. Square brackets hold non-standard residues; d marks the D form. Side chains are listed from the residue outwards. Peptide text beside a SMILES is read from it. * marks the point of attachment. C20 diacid = O=C(O)CCCCCCCCCCCCCCCCCCC(=O)*; Phe(4-CH2NH2) = NCc1ccc(C[C@H](N)C(=O)O)cc1; C18 diacid = O=C(O)CCCCCCCCCCCCCCCCC(=O)*; C16 diacid = O=C(O)CCCCCCCCCCCCCCC(=O)*; γGlu = O=C(O)[C@H](CCC(=O)[*:2])N[*:1]; Met(O2) = CS(=O)(=O)CC[C@H](N)C(=O)O; αMeD = C[C@](N)(CC(=O)O)C(=O)O; AEEA = NCCOCCOCC(=O)O; Aib = CC(C)(N)C(=O)O

T1 sequence (P47871 26-477): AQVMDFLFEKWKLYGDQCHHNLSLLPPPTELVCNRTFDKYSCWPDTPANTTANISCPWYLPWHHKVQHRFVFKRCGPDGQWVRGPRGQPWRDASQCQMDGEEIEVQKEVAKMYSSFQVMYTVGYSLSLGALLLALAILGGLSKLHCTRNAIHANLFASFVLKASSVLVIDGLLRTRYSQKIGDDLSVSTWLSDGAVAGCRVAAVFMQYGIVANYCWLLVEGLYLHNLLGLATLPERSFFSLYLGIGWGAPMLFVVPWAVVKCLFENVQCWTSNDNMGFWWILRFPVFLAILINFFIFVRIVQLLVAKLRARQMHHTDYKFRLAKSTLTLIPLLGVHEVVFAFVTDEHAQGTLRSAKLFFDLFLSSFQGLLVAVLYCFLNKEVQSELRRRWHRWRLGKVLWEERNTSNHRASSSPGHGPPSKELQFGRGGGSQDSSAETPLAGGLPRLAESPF

A word on the EC50: it is the concentration at which the effect is half-maximal. For the molecule `CC(C)C[C@H](NC(=O)[C@H](Cc1ccc(O)cc1)NC(=O)[C@H](CCCCN)NC(=O)[C@H](CO)NC(=O)[C@H](Cc1ccc(O)cc1)NC(=O)[C@H](CC(=O)O)NC(=O)[C@H](CO)NC(=O)[C@@H](NC(=O)[C@H](Cc1ccccc1)NC(=O)[C@@H](NC(=O)CNC(=O)[C@H](CCC(N)=O)NC(=O)C(C)(C)NC(=O)[C@@H](N)Cc1c[nH]cn1)[C@@H](C)O)[C@@H](C)O)C(=O)N[C@@H](CC(=O)O)C(=O)N[C@@H](C)C(=O)N[C@@H](CCCNC(=N)N)C(=O)N[C@@H](C)C(=O)N[C@@H](C)C(=O)N[C@@H](CCC(N)=O)C(=O)N[C@@H](Cc1ccc(CNC(=O)COCCOCCNC(=O)COCCOCCNC(=O)CC[C@H](NC(=O)CCCCCCCCCCCCCCCCC(=O)O)C(=O)O)cc1)C(=O)N[C@@H](Cc1ccccc1)C(=O)N[C@H](C(=O)N[C@@H](CCC(N)=O)C(=O)N[C@@H](Cc1c[nH]c2ccccc12)C(=O)N[C@@H](CC(C)C)C(=O)N[C@@H](CCS(C)(=O)=O)C(=O)N[C@@](C)(CC(=O)O)C(=O)N[C@H](C(N)=O)[C@@H](C)O)C(C)C` [TP634] (H-H[Aib]QGTFTSDYSKYLDARAAQ[Phe(4-CH2NH2)]([AEEA-AEEA-γGlu-C18 diacid])FVQWL[Met(O2)][αMeD]T-NH2), at human GCGR, the “hGCGR/hGLP1R (hTone)” value is 1.6. Moreover, the concentration giving a half-maximal response (EC50) on human GCGR (setting [1]) and on human GLP1R was below 5 nM each time.
For the molecule `CC(C)C[C@H](NC(=O)[C@H](Cc1ccc(O)cc1)NC(=O)[C@H](CCCCN)NC(=O)[C@H](CO)NC(=O)[C@H](Cc1ccc(O)cc1)NC(=O)[C@H](CC(=O)O)NC(=O)[C@H](CO)NC(=O)[C@@H](NC(=O)[C@H](Cc1ccccc1)NC(=O)[C@@H](NC(=O)CNC(=O)[C@H](CCC(N)=O)NC(=O)C(C)(C)NC(=O)[C@@H](N)Cc1c[nH]cn1)[C@@H](C)O)[C@@H](C)O)C(=O)N[C@@H](CC(=O)O)C(=O)N[C@@H](CCC(=O)O)C(=O)N[C@@H](CCCNC(=N)N)C(=O)N[C@@H](C)C(=O)N[C@@H](C)C(=O)N[C@@H](Cc1ccc(CNC(=O)COCCOCCNC(=O)COCCOCCNC(=O)CC[C@H](NC(=O)CCCCCCCCCCCCCCCCCCC(=O)O)C(=O)O)cc1)C(=O)N[C@@H](CC(=O)O)C(=O)N[C@@H](Cc1ccccc1)C(=O)N[C@H](C(=O)N[C@@H](CCC(N)=O)C(=O)N[C@@H](Cc1c[nH]c2ccccc12)C(=O)N[C@@H](CC(C)C)C(=O)N[C@@H](CC(C)C)C(=O)N[C@@H](CCCCN)C(=O)N[C@H](C(N)=O)[C@@H](C)O)C(C)C` [TP586] (H-H[Aib]QGTFTSDYSKYLDERAA[Phe(4-CH2NH2)]([AEEA-AEEA-γGlu-C20 diacid])DFVQWLLKT-NH2; N-terminus assumed), the concentration giving a half-maximal response (EC50) is 4.95 nM at human GCGR (cells expressing human GCGR, cAMP production, buffer with or without 20% human serum (not stated which), read-out: GCGR EC50 human); below 5 nM on human GCGR (setting [1]); below 5 nM on human GLP1R. The “hGCGR/hGLP1R (hTone)” value at human GCGR is reported as above 4.0.
As to `CC(C)C[C@H](NC(=O)[C@H](Cc1c[nH]c2ccccc12)NC(=O)[C@H](CCCCNC(=O)COCCOCCNC(=O)COCCOCCNC(=O)CC[C@H](NC(=O)CCCCCCCCCCCCCCC(=O)O)C(=O)O)NC(=O)[C@@H](NC(=O)[C@H](Cc1ccccc1)NC(=O)[C@H](CC(=O)O)NC(=O)[C@H](CCC(N)=O)NC(=O)[C@H](C)NC(=O)[C@H](C)NC(=O)[C@H](CCCNC(=N)N)NC(=O)C(C)(C)NC(=O)[C@H](CC(=O)O)NC(=O)[C@H](CC(C)C)NC(=O)[C@H](Cc1ccc(O)cc1)NC(=O)[C@H](CCCCN)NC(=O)[C@H](CO)NC(=O)[C@H](Cc1ccc(O)cc1)NC(=O)[C@H](CC(=O)O)NC(=O)[C@H](CO)NC(=O)[C@@H](NC(=O)[C@H](Cc1ccccc1)NC(=O)[C@@H](NC(=O)CNC(=O)[C@H](CCC(N)=O)NC(=O)C(C)(C)NC(=O)[C@@H](N)Cc1c[nH]cn1)[C@@H](C)O)[C@@H](C)O)C(C)C)C(=O)N[C@@H](CCS(C)(=O)=O)C(=O)N[C@@H](CCC(=O)O)C(=O)N[C@H](C(N)=O)[C@@H](C)O` [TP815] (H-H[Aib]QGTFTSDYSKYLD[Aib]RAAQDFVK([AEEA-AEEA-γGlu-C16 diacid])WL[Met(O2)]ET-NH2), at human GCGR, the “hGCGR/hGLP1R (hTone)” value came out at 0.7. Moreover, the EC50 at human GCGR (setting [1]) and on human GLP1R was below 5 nM throughout.

The values above are taken from US11566057B2, “Long-acting co-agonists of the glucagon and GLP-1 receptors” (Merck Sharp & Dohme Corp., priority 2017, dated 2023).
